Measurements taken from US10138227B2, “Heteroaryl substituted pyridines and methods of use” (AbbVie S.à.r.l., priority 2016, dated 2018).
pEC50: −log10 of the molar value.

Molecular target: T1, CFTR ΔF508 mutant (Homo sapiens, UniProt P13569, DEL508-508)
T1 construct: expressed in transfected cells; host or cells: CFBE41o- cells transduced with adenoviral vectors
Experiment: YFP-halide influx assay for the CFTR-ΔF508 mutation
Type: cell-based
Settings: CFBE41o- cells expressing CFTR ΔF508 and YFP reporter, forskolin 10.67 μM; for pEC50: (1-F/F0) vs concentration
Source text: The YFP halide influx assay measured the functionality of the cystic fibrosis Transmembrane Conductance regulator (CFTR) channels in the cystic fibrosis bronchial epithelium cell line CFBE41o-. The assay was used to evaluate the capacity of compounds to increase the open probability of existing CFTR channels in the membrane. It makes use of the observation that the yellow fluorescent protein (YFP) variant YFP H148Q, I152L, F47L has its fluorescence substantially quenched by halide ions like Cl^− and I^− (Galietta, L. J. V., Haggie, P. M., Verkman, A. S., 2001. Green fluorescent protein-based halide indicators with improved chloride and iodide affinities. FEBS Lett. 499, 220-224. doi:10.1016/S0014-5793(01)02561-3; Nagai, T., Ibata, K., Park, E. S., Kubota, M., Mikoshiba, K., Miyawaki, A., 2002. A variant of yellow fluorescent protein with fast and efficient maturation for cell-biological applications. Nat. Biotechnol. 20, 87-90. doi:10.1038/nbt0102-87).
For this purpose, CFBE410-cells were seeded in 384 well plates (3000 CFBE cells/well). One day after seeding, the CFBE cells were transduced with adenoviral vectors that direct the expression of the CFTR ΔF508 mutant and of the YFP reporter. Cells were incubated at 27° C., 5% CO2 for 24 hours so as to allow for the proper folding and migration to the membrane of the CFTR channel or treated with a CFTR modulator during 24 hours at 37° C.
The I-induced quenching of fluorescence was recorded on an immediately after injection of iodide for 2 minutes on an FDSS/μCell (Hamamatsu). The capacity of a compound to increase the channel opening was directly correlated with the decrease in fluorescence, and was expressed as (1-(fluorescence after 36 seconds (F)/fluorescence before injection (F0))) and an EC50 was derived from a (1-F/F0) vs compound concentration plot.

T1 sequence (P13569 with tags, fused parts or gaps DEL508-508): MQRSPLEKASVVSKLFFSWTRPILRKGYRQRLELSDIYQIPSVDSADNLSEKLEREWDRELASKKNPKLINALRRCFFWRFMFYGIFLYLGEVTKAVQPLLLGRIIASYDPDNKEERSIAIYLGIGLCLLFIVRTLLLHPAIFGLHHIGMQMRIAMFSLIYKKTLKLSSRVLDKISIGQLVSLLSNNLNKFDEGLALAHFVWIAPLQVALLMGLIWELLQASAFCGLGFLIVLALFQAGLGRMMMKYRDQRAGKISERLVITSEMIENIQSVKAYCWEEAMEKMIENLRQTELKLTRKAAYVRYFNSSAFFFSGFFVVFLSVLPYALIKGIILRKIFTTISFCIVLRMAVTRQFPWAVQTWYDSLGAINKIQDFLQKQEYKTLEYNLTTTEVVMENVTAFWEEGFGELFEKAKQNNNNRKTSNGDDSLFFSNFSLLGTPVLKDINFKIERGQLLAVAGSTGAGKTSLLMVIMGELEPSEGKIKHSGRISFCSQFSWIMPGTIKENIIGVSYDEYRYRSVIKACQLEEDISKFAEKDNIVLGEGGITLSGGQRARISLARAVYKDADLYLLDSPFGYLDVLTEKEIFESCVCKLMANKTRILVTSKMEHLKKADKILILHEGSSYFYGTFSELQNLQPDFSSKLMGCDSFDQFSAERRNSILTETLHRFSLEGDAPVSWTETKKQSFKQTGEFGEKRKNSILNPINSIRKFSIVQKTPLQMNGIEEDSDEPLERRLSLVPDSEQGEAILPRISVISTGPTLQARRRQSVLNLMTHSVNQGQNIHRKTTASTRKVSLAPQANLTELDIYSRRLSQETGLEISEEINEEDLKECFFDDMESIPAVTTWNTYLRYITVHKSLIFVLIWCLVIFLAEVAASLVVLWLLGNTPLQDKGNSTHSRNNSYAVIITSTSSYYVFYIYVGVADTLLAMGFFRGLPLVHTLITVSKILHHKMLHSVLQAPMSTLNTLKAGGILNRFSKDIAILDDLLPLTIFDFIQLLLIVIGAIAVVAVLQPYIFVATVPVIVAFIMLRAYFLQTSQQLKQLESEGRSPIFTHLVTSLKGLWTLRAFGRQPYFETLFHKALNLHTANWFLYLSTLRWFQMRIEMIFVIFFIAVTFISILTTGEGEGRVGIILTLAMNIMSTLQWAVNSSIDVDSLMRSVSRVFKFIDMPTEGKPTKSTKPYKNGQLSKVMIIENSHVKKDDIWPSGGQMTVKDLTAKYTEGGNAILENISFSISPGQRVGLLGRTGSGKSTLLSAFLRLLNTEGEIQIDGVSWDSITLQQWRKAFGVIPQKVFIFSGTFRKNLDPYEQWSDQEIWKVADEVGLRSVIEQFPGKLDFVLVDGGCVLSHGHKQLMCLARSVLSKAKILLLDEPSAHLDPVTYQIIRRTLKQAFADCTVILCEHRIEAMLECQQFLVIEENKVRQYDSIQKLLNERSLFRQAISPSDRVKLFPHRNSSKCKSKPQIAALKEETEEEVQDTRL

SMILES	% Activation [%]	pEC50
Nc1cc(S(=O)(=O)c2ccc(F)cc2)cnc1-c1nnc(CO)o1 [Compound 9, {5-[3-amino-5-(4-fluorobenzene-1-sulfonyl)pyridin-2-yl]-1,3,4-oxadiazol-2-yl}methanol]	104.65	7.01
CO[C@@H](c1ccccc1)c1nnc(-c2ncc(S(=O)(=O)c3ccc(OC(F)(F)F)cc3)cc2N)o1 [Compound 11, 2-{5-[(S)-methoxy(phenyl)methyl]-1,3,4-oxadiazol-2-yl}-5-[4-(trifluoromethoxy)benzene-1-sulfonyl]pyridin-3-amine]	109.82	7.46
COC(C)c1nnc(-c2ncc(S(=O)(=O)c3ccc(OC(F)(F)F)cc3)cc2N)s1 (stereo not shown) [Compound 22, 2-[5-(1-methoxyethyl)-1,3,4-thiadiazol-2-yl]-5-[4-(trifluoromethoxy)benzene-1-sulfonyl]pyridin-3-amine]	112.9	7.82
CO[C@H](C)c1nnc(-c2ncc(S(=O)(=O)c3ccc(OC(F)(F)F)cc3)cc2N)s1 [Compound 21, 2-{5-[(1R)-1-methoxyethyl]-1,3,4-thiadiazol-2-yl}-5-[4-(trifluoromethoxy)benzene-1-sulfonyl]pyridin-3-amine]	109.42	8.07
Nc1cc(S(=O)(=O)c2ccc(OC(F)(F)F)cc2)cnc1-c1nnc(COc2cccnc2)s1 [Compound 27, 2-(5-{[(pyridin-3-yl)oxy]methyl}-1,3,4-thiadiazol-2-yl)-5-[4-(trifluoromethoxy)benzene-1-sulfonyl]pyridin-3-amine]	96.45	6.82
Nc1cc(S(=O)(=O)c2ccc(OC(F)(F)F)cc2)cnc1-c1nnc(COC2CCOC2)o1 (stereo not shown) [Compound 16, 2-(5-{[(oxolan-3-yl)oxy]methyl}-1,3,4-oxadiazol-2-yl)-5-[4-(trifluoromethoxy)benzene-1-sulfonyl]pyridin-3-amine]	110.75	7.11
Nc1cc(S(=O)(=O)c2ccc(OC(F)(F)F)cc2)cnc1-c1nnc(COC2CCOC2)s1 (stereo not shown) [Compound 29, 2-(5-{[(oxolan-3-yl)oxy]methyl}-1,3,4-thiadiazol-2-yl)-5-[4-(trifluoromethoxy)benzene-1-sulfonyl]pyridin-3-amine]	102.9	7.79
CO[C@@H](c1ccccc1)c1nnc(-c2ncc(S(=O)(=O)c3ccc(OC(F)(F)F)cc3)cc2N)s1 [Compound 19, 2-{5-[(S)-methoxy(phenyl)methyl]-1,3,4-thiadiazol-2-yl}-5-[4-(trifluoromethoxy)benzene-1-sulfonyl]pyridin-3-amine]	97.54	6.46
NC(=O)c1nnc(-c2ncc(S(=O)(=O)c3ccc(OC(F)(F)F)cc3)cc2N)o1 [Compound 8, 5-{3-amino-5-[4-(trifluoromethoxy)benzene-1-sulfonyl]pyridin-2-yl}-1,3,4-oxadiazole-2-carboxamide]	93.73	6.52
COCCOCc1nnc(-c2ncc(S(=O)(=O)c3ccc(OC(F)(F)F)cc3)cc2N)s1 [Compound 17, 2-{5-[(2-methoxyethoxy)methyl]-1,3,4-thiadiazol-2-yl}-5-[4-(trifluoromethoxy)benzene-1-sulfonyl]pyridin-3-amine]	117.3	7.94
C[C@@](O)(c1nnc(-c2ncc(S(=O)(=O)c3ccc(OC(F)(F)F)cc3)cc2N)s1)C(F)(F)F [Compound 20, (2S)-2-(5-{3-amino-5-[4-(trifluoromethoxy)benzene-1-sulfonyl]pyridin-2-yl}-1,3,4-thiadiazol-2-yl)-1,1,1-trifluoropropan-2-ol]	97.45	8.09

Now from value to compound:

% Activation [%]	pEC50	SMILES
82.3	< 5.78	COC(C)(C)c1noc(-c2ncc(S(=O)(=O)c3ccc(OC(F)(F)F)cc3)cc2N)n1 [Compound 46, 2-[3-(2-methoxypropan-2-yl)-1,2,4-oxadiazol-5-yl]-5-[4-(trifluoromethoxy)benzene-1-sulfonyl]pyridin-3-amine]
122	> 9.34	Nc1cc(S(=O)(=O)c2ccc(OC(F)(F)F)cc2)c(Cl)nc1-c1nnc(CO)o1 [Compound 64, (5-{3-amino-6-chloro-5-[4-(trifluoromethoxy)benzene-1-sulfonyl]pyridin-2-yl}-1,3,4-oxadiazol-2-yl)methanol]
59.4	< 5.78	COC(C)c1noc(-c2ncc(S(=O)(=O)c3ccc(OC(F)(F)F)cc3)cc2N)n1 (stereo not shown) [Compound 47, 2-[3-(1-methoxyethyl)-1,2,4-oxadiazol-5-yl]-5-[4-(trifluoromethoxy)benzene-1-sulfonyl]pyridin-3-amine]
97.36	7.01	Nc1cc(S(=O)(=O)c2ccccc2)cnc1-c1nnc(CO)o1 [Compound 61, {5-[3-amino-5-(benzenesulfonyl)pyridin-2-yl]-1,3,4-oxadiazol-2-yl}methanol]
23.23	< 5.48	Nc1cc(S(=O)(=O)c2ccc(OC(F)(F)F)cc2)cnc1-c1nc(CC2CCCO2)no1 (stereo not shown) [Compound 51, 2-{3-[(oxolan-2-yl)methyl]-1,2,4-oxadiazol-5-yl}-5-[4-(trifluoromethoxy)benzene-1-sulfonyl]pyridin-3-amine]
102.93	7.91	CCOCc1nnc(-c2ncc(S(=O)(=O)c3ccc(OC(F)(F)F)cc3)cc2N)o1 [Compound 36, 2-[5-(ethoxymethyl)-1,3,4-oxadiazol-2-yl]-5-[4-(trifluoromethoxy)benzene-1-sulfonyl]pyridin-3-amine]
119.45	8.01	Nc1cc(S(=O)(=O)c2ccc(OC(F)(F)F)cc2)cnc1-c1nnc(COC(F)F)o1 [Compound 39, 2-{5-[(difluoromethoxy)methyl]-1,3,4-oxadiazol-2-yl}-5-[4-(trifluoromethoxy)benzene-1-sulfonyl]pyridin-3-amine]
109.65	8.80	CC(O)c1nnc(-c2ncc(S(=O)(=O)c3ccc(OC(F)(F)F)cc3)cc2N)o1 (stereo not shown) [Compound 42, 1-(5-{3-amino-5-[4-(trifluoromethoxy)benzene-1-sulfonyl]pyridin-2-yl}-1,3,4-oxadiazol-2-yl)ethan-1-ol]
109.25	8.95	Nc1cc(S(=O)(=O)c2ccc(OC(F)(F)F)cc2)cnc1-c1nnc([C@@H](O)c2ccccc2)o1 [Compound 45, (S)-(5-{3-amino-5-[4-(trifluoromethoxy)benzene-1-sulfonyl]pyridin-2-yl}-1,3,4-oxadiazol-2-yl)(phenyl)methanol]
96.97	7.38	Nc1cc(S(=O)(=O)c2ccc(OC(F)(F)F)cc2)cnc1-c1nnc(C[C@H]2CCCO2)o1 [Compound 41, 2-(5-{[(2R)-oxolan-2-yl]methyl}-1,3,4-oxadiazol-2-yl)-5-[4-(trifluoromethoxy)benzene-1-sulfonyl]pyridin-3-amine]
<1.18	–	Nc1c(-c2nnc(CO)o2)ncc(S(=O)(=O)c2ccc(OC(F)(F)F)cc2)c1Br [Compound 66, (5-{3-amino-4-bromo-5-[4-(trifluoromethoxy)benzene-1-sulfonyl]pyridin-2-yl}-1,3,4-oxadiazol-2-yl)methanol]
109.05	6.65	Nc1cc(S(=O)(=O)c2ccc(OC(F)(F)F)cc2)cnc1-c1nnc(COc2cccnc2)o1 [Compound 38, 2-(5-{[(pyridin-3-yl)oxy]methyl}-1,3,4-oxadiazol-2-yl)-5-[4-(trifluoromethoxy)benzene-1-sulfonyl]pyridin-3-amine]
98.52	7.68	CO[C@@H](C)c1nnc(-c2ncc(S(=O)(=O)c3ccc(OC(F)(F)F)cc3)cc2N)o1 [Compound 35, 2-{5-[(1S)-1-methoxyethyl]-1,3,4-oxadiazol-2-yl}-5-[4-(trifluoromethoxy)benzene-1-sulfonyl]pyridin-3-amine]
119.85	7.54	COCc1nnc(-c2ncc(S(=O)(=O)c3ccc(OC(F)(F)F)cc3)cc2N)o1 [Compound 37, 2-[5-(methoxymethyl)-1,3,4-oxadiazol-2-yl]-5-[4-(trifluoromethoxy)benzene-1-sulfonyl]pyridin-3-amine]
